In patent US9827229B2, “Small molecule securinine and norsecurinine analogs and their use in cancers, inflammatory diseases and infections” (INVENIO THERAPEUTICS INC., priority 2013, dated 2017) one finds EC50 and IC50 data, which are given here for 30 molecules.

The test system of assay [1] is HL60 cells. The assay can be described thus: Differentiation of HL60 cells (Dif50). The following applies: Homo sapiens, no unit in head or cell (other cells of the column print uM). It is filed as cell-based, human. From the text:
The tested compounds and their respective results are produced in Table 1. Those skilled in the art will appreciate that combining the securinine and/or norsecurinine analogs with other differentiation inducing agents, such as all-trans retinoic acid, cytarabine and/or an anthracycline, would be of further benefit. Those skilled in the art will appreciate that inducing differentiation may further reduce oxidative damage due to lower presence of radical inducing enzymes (see, e.g., Yamada et al. J Biol Chem 259(5)3021-3025 (1984) and Weil et al., PNAS 84:2057-2061 (1987)).
(§1) The analogs were then tested and evaluated on the ability to affect differentiation and growth of HL60 cells.

Assay [2] relates to HL60 cells. The assay can be described thus: Growth of HL60 cells (IC50). It is filed as cell-based, human. As to the method: as §1
The mark [3] stands for this setting: HL-60, HL-60 cells, differentiation, read-out: HL-60, Dif50.
The mark [4] stands for this setting: Homo sapiens, HL-60, HL-60 cells, growth, no unit in head or cell (other cells of the column print uM), read-out: HL-60, IC50.
Where [5] appears, read: Homo sapiens, HL-60, read-out: HL-60, IC50, HL-60 cells, growth, no unit in head or cell (other cells of the column print uM).
Setting [6] is: HL-60, read-out: HL-60, Dif50, HL-60 cells, differentiation.
Where [7] appears, read: read-out: HL-60, IC50, HL-60 cells, growth, no unit in head or cell (other cells of the column print uM).

Molecules are shown by their SMILES. Where a name gives a salt, the structure may show the parent alone. Read-outs that look alike come from different tables or passages of the source.

As to `CC(C)CS[C@H]1CC2=CC(=O)O[C@@]23C[C@@H]1N1CCCC[C@@H]13` (stereo in doubt) [INVS-MG-55B & 57B = 37B], the EC50 with HL60 cells [1] (setting [3]) was in the range of 15 to 20 µM.

Turning to `CC(C)CS[C@@H]1CC2=CC(=O)O[C@@]23C[C@@H]1N1CCCC[C@@H]13` (stereo in doubt) [INVS-MG-57A], in the assay on HL60 cells [1] (setting [3]), the EC50 is 20 to 30 µM.

On to `O=C1C=C2C(C#Cc3ccc[n+]([O-])c3)=CC3CC2(O1)C1CCCCN31` (stereo not drawn) [INV-SZ-113-2], for which the half-inhibitory concentration (IC50) in the assay with HL60 cells [2] (setting [4]) was 0.15 to 0.31 µM.

`COC(OC)C1CCC2N1C1C=C(C#Cc3cccnc3)C3=CC(=O)OC32C1` (stereo not drawn) [INV-SZ-114-1]: the IC50 with HL60 cells [2] (setting [4]) fell in the range of 0.07 to 0.15 µM.

As to `COC(OC)C1CCC2N1C1C=C(C#Cc3ccc[n+]([O-])c3)C3=CC(=O)OC32C1` (stereo not drawn) [INV-SZ-115-1], the IC50 with HL60 cells [2] (setting [4]) lay within 0.15 to 0.31 µM.

Consider `O=C1C=C2C(C#Cc3cccc[n+]3[O-])=CC3CC2(O1)C1CCCCN31` (stereo not drawn) [INV-SZ-116-1], for which the IC50 in the assay with HL60 cells [2] (setting [4]) lay within 2.5 to 5 µM.

Consider `COC(OC)C1CCC2N1C1C=C(C#Cc3ccc(N(C)C)cc3)C3=CC(=O)OC32C1` (stereo not drawn) [INV-SZ-117-3], for which the IC50 in the assay on HL60 cells [2] (setting [4]) fell in the range of 0.03 to 0.07 µM.

Turning to `O=C1C=C2C=CC3CC2(O1)C1=C(Br)CCCN13` (stereo not drawn) [INV-SZ-118-2], the IC50 in the assay on HL60 cells [2] (setting [5]) is 0.31 to 0.62 µM.

Regarding `O=C1C=C2C(C#Cc3ccc(CO)cc3)=CC3CC2(O1)C1CCCCN31` (stereo not drawn) [INV-SZ-120-1], the IC50 in the assay on HL60 cells [2] (setting [4]) is 0.07 to 0.15 µM.

As to `COC(OC)C1CCC2N1C1C=C(C#Cc3ccccc3)C3=CC(=O)OC32C1` (stereo not drawn) [INV-SZ-123-2], the IC50 in the assay with HL60 cells [2] (setting [4]) was 0.37 to 0.75 µM.

Turning to `O=C1C=C2C3C=CCC2(O1)C1CCCCN1O3` (stereo not drawn) [INV-SZ-125-1], in the assay with HL60 cells [2] (setting [4]), the IC50 was under 5 µM.

With `O=C1C=C2C=CC3CC2(O1)C1CCCCN1O3` (stereo not drawn) [INV-SZ-125-2], the IC50 in the assay on HL60 cells [2] (setting [4]) was under 5 µM.

For `O=C1C=C2C3C=CCC2(O1)C1CCC=CN1O3` (stereo not drawn) [INV-SZ-125-3], the IC50 in the assay on HL60 cells [2] (setting [4]) is under 5 µM.

As for `CNCC#CC1=CC2CC3(OC(=O)C=C13)C1CCCCN21` (stereo not drawn) [INV-SZ-129-1], in the assay with HL60 cells [2] (setting [4]), the IC50 was in the range of 2.5 to 5 µM.

Take `O=CC1CCC2N1C1C=CC3=CC(=O)OC32C1` (stereo not drawn) [INV-SZ-132-1]: in the assay with HL60 cells [2] (setting [4]), the IC50 was in the range of 1.25 to 2.5 µM.

Consider `O=C1C=C2C=CC3CC2(O1)C1CCC(CO)N31` (stereo not drawn) [INV-SZ-132-2], for which, in the assay on HL60 cells [2] (setting [4]), the IC50 is 0.3 to 0.6 µM.

Take `O=C1C=C2C(C#CCO)=CC3CC2(O1)C1CCCCN31` (stereo not drawn) [INV-SZ-133-1]: in the assay with HL60 cells [2] (setting [4]), the IC50 is 1.25 to 2.5 µM.

`COC(OC)C1CCC2N1C1C=C(C#CCO)C3=CC(=O)OC32C1` (stereo not drawn) [INV-SZ-136-1]: the IC50 with HL60 cells [2] (setting [4]) lay in the range of 0.15 to 0.31 µM.

As to `CS(=O)(=O)NCC#CC1=CC2CC3(OC(=O)C=C13)C1CCCCN21` (stereo not drawn) [INV-SZ-137-1], the IC50 in the assay on HL60 cells [2] (setting [4]) lay in the range of 0.07 to 0.15 µM.

As for `O=C1C=C2C(I)=CC3CC2(O1)C1CCC(CO)N31` (stereo not drawn) [INV-SZ-140-1], the IC50 in the assay with HL60 cells [2] (setting [4]) lay within 0.07 to 0.15 µM.

For the molecule `COC(OC)C1CCC2N1C1C=C(C#CCNC(=O)CCl)C3=CC(=O)OC32C1` (stereo not drawn) [INV-SZ-141-1], the IC50 in the assay with HL60 cells [2] (setting [4]) fell in the range of 1.25 to 2.5 µM.

`O=C1C=C2C(c3ccccc3)=C[C@@H]3C[C@@]2(O1)[C@H]1CCCCN31` [INVG-28-1 = INVS-MG-56B]: in the assay with HL60 cells [1] (setting [3]), the EC50 is over 30 µM.

In the case of `COC(OC)[C@H]1CCC2N1[C@@H]1C=CC3=CC(=O)O[C@@]32C1` (stereo partly drawn) [INVG-Z-27-4 = INVS-MG-52D], in the assay with HL60 cells [1] (setting [6]), the EC50 was 3.25 to 5 µM.

In the case of `O=C1C=C2CC(SC3CCCCC3)[C@@H]3C[C@@]2(O1)[C@H]1CCCCN31` (stereo partly drawn) [INVS-MG-3B], the EC50 in the assay on HL60 cells [1] (setting [3]) fell in the range of 15 to 20 µM.

As to `O=C1CC2(SCC(F)(F)F)CC(SCC(F)(F)F)[C@@H]3C[C@@]2(O1)[C@H]1CCCCN31` (stereo partly drawn) [INVS-MG-5A], the EC50 in the assay on HL60 cells [1] (setting [6]) lay within 5 to 7.5 µM.

As to `O=C1C=C2C[C@H](SCC(F)(F)F)[C@@H]3C[C@@]2(O1)[C@H]1CCCCN31` [INVS-MG-5B], in the assay on HL60 cells [1] (setting [3]), the EC50 was over 30 µM.

For `O=C1C=C2C(I)=C[C@@H]3C[C@@]2(O1)[C@H]1CCCCN31` [INVS-MG-82 = 12A HCl salt], the IC50 with HL60 cells [2] (setting [7]) was over 2.5 µM.

As for `O=C1C=C2C(I)=C[C@@H]3C[C@@]2(O1)[C@H]1CCCCN31` [INVS-MG-84], the IC50 with HL60 cells [2] (setting [7]) was over 2.5 µM.

As to `COC(OC)[C@H]1CC[C@H]2N1[C@@H]1C=C(I)C3=CC(=O)O[C@@]32C1` [INVS-MG-99-IVB-I], in the assay on HL60 cells [2] (setting [5]), the IC50 fell in the range of 0.31 to 0.625 µM.

`COC(OC)[C@H]1CC[C@H]2N1[C@@H]1C=CC3=CC(=O)O[C@@]32C1` [INVS-MG-99-IVD-I]: the IC50 in the assay with HL60 cells [2] (read-out: HL-60, IC50, HL-60 cells, growth) is over 5 µM.

For orientation: IC50 means the point on the concentration scale where inhibition reaches its midpoint.
